The record followed here is patent US9226505B2, “4-substituted 1-phenylpyrazole-3-carboxylic acid derivatives as agents against abiotic plant stress” (BAYER INTELLECTUAL PROPERTY GMBH, priority 2011, dated 2016).

The test system of this assay is BRSNS. Briefly: Drought stress test on crop plants, spray application, visual damage rating (BRSNS). It counts as in vivo, Brassica napus. The following applies: dosage 250 g/ha, mean of three results. The protocol: Seeds of monocotyledonous and dicotyledonous crop plants were laid out in sandy loam in wood-fiber pots, covered with soil and cultivated in a greenhouse under good growth conditions. The test plants were treated at the early leaf stage (BBCH10-BBCH13). To ensure uniform water supply before commencement of stress, the potted plants were supplied with the maximum amount of water immediately beforehand by dam irrigation and, after application, transferred into plastic inserts in order to prevent subsequent, excessively rapid drying. The compounds according to the invention, formulated in the form of wettable powders (WP), wettable granules (WG), suspension concentrates (SC) or emulsion concentrates (EC), were sprayed onto the green parts of the plants as an aqueous suspension at an equivalent water application rate of 600 I/ha with addition of 0.2% wetting agent (agrotin). Substance application is followed immediately by stress treatment of the plants (cold or drought stress). […]
After the recovery phase had ended, the intensities of damage were rated visually in comparison to untreated, unstressed controls of the same age (in the case of drought stress) or the same growth stage (in the case of cold stress). The intensity of damage was first recorded as a percentage (100%=plants have died, 0%=like control plants). […]

For `CCCn1cc(-c2cn(-c3ccc(F)cc3)nc2C(=O)OCC)cn1` [1-878, Ethyl 1-(4-fluorophenyl)-1-propyl-1H, 1′H-4,4′-bipyrazole-3-carboxylate], the “EF (BRSNS), efficacy = percentage reduction in the intensity of damage” value is above 5%.
